Legend:
CD8+ T cells = test: exogenous autologous normal donor restimulation assay, TNFα/IFNγ double positive CD8+ T cells by flow cytometry; assay type: cell-based, human; details: for Fold change (CD8+) vs. DMSO: maximum CD8+ T-cell response (TNFα and IFNγ); for Fold change (CD8+) vs. DMSO / Frequency (TNFα + IFNγ + CD8 T cells): donor independent, peptide pool 10 μg/mL, healthy donors; for Frequency (TNFα + IFNγ + CD8 T cells): maximum CD8+ T-cell response; for Immunogenic (yes/no): positive if CD8+ and/or CD4+ double positive TNFα/IFNγ frequency >=3-fold over DMSO and at least 0.01%
Method: (§1) The immunogenicity of neoantigens was assessed using the exogenous autologous normal donor restimulation assay. […] The lyophilized peptides were solubilized in 100% DMSO.
(§2) CD1c+ Dendritic Cells (CD1c+DC) isolated from human healthy PBMCs were thawed using media (IMDM (Gibco) supplemented with glutamine, HEPES, 5% human serum (Sigma), and 1× Pen-Strep). DC cells were resuspended in media supplemented with IL-4 (Peprotech, 20 ng/mL) and GM-CSF (Gibco, 20 ng/mL), plated in 6 well microplates, and rested overnight at 37° C. and 5% CO2 incubator. The following day, DC cells were counted and plated in a 96 well round bottom microplate at a concentration of 30,000 viable cells per well. Lyophilized neoantigen peptide pools (15-mer peptides with 8-mer overlapping peptide sequences) were solubilized in 100% DMSO with a stock concentration of 20 mg/mL Neoantigen peptides pools were added to DCs for a final concentration of 10 μg/mL and rested for 2 hours at 37° C. and 5% CO2 incubator. CEF Peptide Pool “Plus” (Cellular Technologies, Ltd.) was utilized as a positive control (each viral peptide at a final concentration of 4 ug/ml) and DMSO at the same final concentration (0.05%) as the experimental peptides was utilized as a negative control. After 2 hours, DC cells were irradiated with 50 gray of ionizing radiation. Autologous CD3+ Pan-T cells isolated from human normal PBMCs were thawed using media. Following irradiation, autologous Pan-T cells were added to the irradiated DCs at 300,000 viable cells per well. Human IL-15 (Peprotech) was added to all wells at final concentration of 10 ng/ml. Plates were incubated at 37° C. and 5% CO2 incubator for a total of 12 days. Media was refreshed every 2-3 days with IL-15 (R&D System, 10 ng/mL final concentration) and IL-2 (R&D systems, 10 IU/mL final concentration).
(§3) On Day 11, cells were re-stimulated with identical experimental peptide pools or controls, at same concentration as peptide stimulation on Day 1. Protein Inhibitor Cocktail (eBioscience) was added to every well and plate was incubated overnight for 14-16 hours at 37° C. and 5% CO2 incubator. On Day 12, cells were stained for surface and intracellular flow cytometry analysis. The cells were washed with PBS and stained with Live/Dead Fixable Aqua Dead Cell stain (Thermo-Fisher). Following the live/dead stain, cells were blocked using Biotin-Fre Fc Receptor Blocker (Accurate Chemical & Scientific Corp). Extracellular cellular flow panel ([…] per well in 50 μL) consisted of CD3 PerCP-Cy5.5 (Biolegend), CD4 BV421 (Biolegend), and CD8 APC-Cy7 (Biolegend). After extracellular staining, cells were fixed and permeabilized using Foxp3/Transcription Factor Staining Buffer Set (eBioscience) and stained for intracellular proteins (1:50 dilution) using TNFα FITC (R&D Systems) and IFNγ BV785 (Biolegend). Cells were washed and resuspended in stain buffer, analyzed, and recorded in a BD Celesta flow cytometer.
(§4) Flow cytometry analysis was conducted on FlowJo v10.6 software. Cells were gated on live, singlet, CD3+, CD4+ and CD8+ T cells. The CD8+ and CD4+ T cells were analyzed for TNFα and IFNγ expression.
(§5) The immunogenicity of neoantigens was first investigated in 9-16 healthy donors.

CD4+ T cells = test: exogenous autologous normal donor restimulation assay, TNFα/IFNγ double positive CD4+ T cells by flow cytometry; assay type: cell-based, human; details: donor independent, peptide pool 10 μg/mL, healthy donors; for Fold change (CD4+) vs. DMSO: maximum CD4+ T-cell response (TNFα and IFNγ); for Frequency (TNFα + IFNγ + CD4 T cells): maximum CD4+ T-cell response
Method: as §1, §2, §3, §4, §5

| Sequence | Fold change (CD8+) vs. DMSO (CD8+ T cells) [fold] | Frequency (TNFα + IFNγ + CD8 T cells) (CD8+ T cells) [%] | Immunogenic (yes/no) (CD8+ T cells) | Fold change (CD4+) vs. DMSO (CD4+ T cells) [fold] | Frequency (TNFα + IFNγ + CD4 T cells) (CD4+ T cells) [%] |
| --- | --- | --- | --- | --- | --- |
| AAEQAGCMQCLI [FUS8, neoantigen, gene fusion TYSND1->AIFM2] | 6.27 | 0.12 | yes | 5.93 | 0.029 |
| ALTVVPPGLRLDRVLLHLW [FUS27, neoantigen, gene fusion C17orf99->SYNGR2] | 19.77 | 0.43 | Yes | 10.37 | 0.021 |
| AMAKKQRPDTAFWVQH [AS12, neoantigen, alternative splicing of IQGAP3] | 6.05 | 0.13 | Yes | 8.4 | 0.017 |
| APILAAIGIGRLLCMDKIPATASLTP [FUS3, neoantigen, gene fusion PTH2R->LOC101927960] | 158.8 | 0.74 | yes | 5.02 | 0.025 |
| APSCGVSRAICDRGCH [AS79, neoantigen, alternative splicing of FBN3] | 2.88 | 0.076 | Yes | 5.85 | 0.12 |
| CDPAAPRAVSLPGRQGSEGGEGRGLGSRPAVLGRHSSGEGGGPWGELP [AS133, neoantigen, alternative splicing of HRAS] | 171.88 | 0.84 | Yes | 54.15 | 0.16 |
| CLRPSLSLASRGFQNP [AS88, neoantigen, alternative splicing of UPK3B] | 3.13 | 0.063 | Yes | 15.85 | 0.062 |
| EEDREKYRWMAPFVPGQVWTWEYFL [AS28, neoantigen, alternative splicing of HYDIN] | 8.82 | 0.15 | Yes | 12.43 | 0.17 |
| FKIPKFSIVLSSNSAFRCDPLSSRPRCFGGSLEAP [AS27, neoantigen, alternative splicing of GTSE1] | 108.36 | 0.35 | Yes | 31.11 | 0.063 |
| FLIVAEIVTLLIAFI [FUS20, neoantigen, gene fusion CMTM8->CMTM7] | 28.23 | 0.54 | Yes | 2.36 | 0.019 |
| FQETWLAEDAAAGALSPCTIPTPPQPPLLSLPTSSGTRQ [AS97, neoantigen, alternative splicing of ETV4] | 433.66 | 1.34 | Yes | 6.12 | 0.15 |
| GDPAKVVEIPRLL [AS31, neoantigen, alternative splicing of MECR] | 4.54 | 0.045 | Yes | 6.91 | 0.016 |

From patent US11945881B2, “Neoantigens expressed in ovarian cancer and their uses” (Janssen Biotech, Inc., priority 2020, dated 2024)
